Where two headings read alike, the source gives them in different places.
Experiments:
TYK2 = molecular target: T1, TYK2 (Homo sapiens, UniProt P29597); experiment: Kinobeads assay, TYK2 (competition binding in mixed Molt4/Ramos cell lysate, dot blot detection)
T1 construct: endogenous in cells; host or cells: Molt4 (ATCC CRL-1582) and Ramos (ATCC CRL-1596), mixed lysate 1:2
Procedure: (§1) The compounds of the present invention as described in the previous examples were tested in a Kinobeads™ assay as described for ZAP-70 (WO-A 2007/137867). Briefly, test compounds (at various concentrations) and the affinity matrix with the immobilized aminopyrido-pyrimidine ligand 24 were added to cell lysate aliquots and allowed to bind to the proteins in 10 the lysate sample. After the incubation time the beads with captured proteins were separated from the lysate. Bound proteins were then eluted and the presence of TYK2 and JAK2 was detected and quantified using specific antibodies in a dot blot procedure and the Odyssey infrared detection system. Dose response curves for individual kinases were generated and IC50 values calculated. Kinobeads™ assays have been previously described (WO-A 2007/137867; WO-A 2006/134056).
(§2) The affinity matrix was washed two times with 15 mL of 1×DP buffer containing 0.2% NP40 (IGEPAL® CA-630, Sigma, #13021) and then resuspended in 1×DP buffer containing 0.2% NP40 (3% beads slurry). 5×DP buffer: 250 mM Tris-HCl pH 7.4, 25% Glycerol, 7.5 mM MgCl2, 750 mM NaCl, 5 mM Na3VO4; filter the 5×DP buffer through a 0.22 μm filter and store in aliquots at −80° C. The 5×DP buffer is diluted with H2O to 1×DP buffer containing 1 mM DTT and 25 mM NaF.
(§3) Stock solutions of test compounds were prepared in DMSO. In a 96 well plate 30 μL solution of diluted test compounds at 5 mM in DMSO were prepared. Starting with this solution a 1:3 dilution series (9 steps) was prepared. For control experiments (no test compound) a buffer containing 2% DMSO was used.
(§4) Molt4 cells (ATCC catalogue number CRL-1582) and Ramos cells (ATCC catalogue number CRL-1596) were grown in 1 L Spinner flasks (Integra Biosciences, #182101) in suspension in RPMI 1640 medium (Invitrogen, #21875-034) supplemented with 10% Fetal Bovine Serum (Invitrogen) at a density between 0.15×10^6 and 1.2×10^6 cells/mL. Cells were harvested by centrifugation, washed once with 1×PBS buffer (Invitrogen, #14190-094) and cell pellets were frozen in liquid nitrogen and subsequently stored at −80° C. Cells were homogenized in a Potter S homogenizer in lysis buffer: 50 mM Tris-HCl, 0.8% NP40, 5% glycerol, 150 mM NaCl, 1.5 mM MgCl2, 25 mM NaF, 1 mM sodium vanadate, 1 mM DTT, pH 7.5. One complete EDTA-free tablet (protease inhibitor cocktail, Roche Diagnostics, 1873580) per 25 mL buffer was added. The material was dounced 10 times using a mechanized POTTER S, transferred to 50 mL falcon tubes, incubated for 30 minutes on ice and spun down for 10 minutes at 20,000 g at 4° C. (10,000 rpm in Sorvall SLA600, precooled). The supernatant was transferred to an ultracentrifuge (UZ)-polycarbonate tube (Beckmann, 355654) and spun for 1 hour at 100.000 g at 4° C. (33.500 rpm in Ti50.2, precooled). The supernatant was transferred again to a fresh 50 mL falcon tube, the protein concentration was determined by a Bradford assay (BioRad) and samples containing 50 mg of protein per aliquot were prepared. The samples were immediately used for experiments or frozen in liquid nitrogen and stored frozen at −80° C.
(§5) Cell lysate (approximately 50 mg protein per plate) was thawed in a water bath at room temperature and then stored on ice. To the thawed cell lysate 1×DP 0.8% NP40 buffer containing protease inhibitors (1 tablet for 25 mL buffer; EDTA-free protease inhibitor cocktail; Roche Diagnostics 1873580) was added in order to reach a final protein concentration of 10 mg/mL total protein. The diluted cell lysate was stored on ice. Mixed Molt4/Ramos lysate was prepared by combining one volume of Molt4 lysate and two volumes of Ramos lysate (ratio 1:2).
(§6) To a 96 well filter plate (Multiscreen HTS, BV Filter Plates, Millipore #MSBVN1250) were added per well: 100 μL affinity matrix (3% beads slurry), 3 μL of compound solution, and 50 μL of diluted lysate. Plates were sealed and incubated for 3 hours in a cold room on a plate shaker (Heidolph tiramax 1000) at 750 rpm. […]

JAK2 = molecular target: T2, JAK2 (Homo sapiens, UniProt O60674); experiment: Kinobeads assay, JAK2 (competition binding in mixed Molt4/Ramos cell lysate, dot blot detection); settings: read-out: JAK2 Band (Kinobeads assay potency, IC50)
T2 construct: endogenous in cells; host or cells: Molt4 (ATCC CRL-1582) and Ramos (ATCC CRL-1596), mixed lysate 1:2
Procedure: as §1, §2, §3, §4, §5, §6

[1] = Kinobeads assay, Molt4/Ramos lysate, read-out: TYK2 Band (Kinobeads assay potency, IC50)

T1 sequence (P29597 whole entry): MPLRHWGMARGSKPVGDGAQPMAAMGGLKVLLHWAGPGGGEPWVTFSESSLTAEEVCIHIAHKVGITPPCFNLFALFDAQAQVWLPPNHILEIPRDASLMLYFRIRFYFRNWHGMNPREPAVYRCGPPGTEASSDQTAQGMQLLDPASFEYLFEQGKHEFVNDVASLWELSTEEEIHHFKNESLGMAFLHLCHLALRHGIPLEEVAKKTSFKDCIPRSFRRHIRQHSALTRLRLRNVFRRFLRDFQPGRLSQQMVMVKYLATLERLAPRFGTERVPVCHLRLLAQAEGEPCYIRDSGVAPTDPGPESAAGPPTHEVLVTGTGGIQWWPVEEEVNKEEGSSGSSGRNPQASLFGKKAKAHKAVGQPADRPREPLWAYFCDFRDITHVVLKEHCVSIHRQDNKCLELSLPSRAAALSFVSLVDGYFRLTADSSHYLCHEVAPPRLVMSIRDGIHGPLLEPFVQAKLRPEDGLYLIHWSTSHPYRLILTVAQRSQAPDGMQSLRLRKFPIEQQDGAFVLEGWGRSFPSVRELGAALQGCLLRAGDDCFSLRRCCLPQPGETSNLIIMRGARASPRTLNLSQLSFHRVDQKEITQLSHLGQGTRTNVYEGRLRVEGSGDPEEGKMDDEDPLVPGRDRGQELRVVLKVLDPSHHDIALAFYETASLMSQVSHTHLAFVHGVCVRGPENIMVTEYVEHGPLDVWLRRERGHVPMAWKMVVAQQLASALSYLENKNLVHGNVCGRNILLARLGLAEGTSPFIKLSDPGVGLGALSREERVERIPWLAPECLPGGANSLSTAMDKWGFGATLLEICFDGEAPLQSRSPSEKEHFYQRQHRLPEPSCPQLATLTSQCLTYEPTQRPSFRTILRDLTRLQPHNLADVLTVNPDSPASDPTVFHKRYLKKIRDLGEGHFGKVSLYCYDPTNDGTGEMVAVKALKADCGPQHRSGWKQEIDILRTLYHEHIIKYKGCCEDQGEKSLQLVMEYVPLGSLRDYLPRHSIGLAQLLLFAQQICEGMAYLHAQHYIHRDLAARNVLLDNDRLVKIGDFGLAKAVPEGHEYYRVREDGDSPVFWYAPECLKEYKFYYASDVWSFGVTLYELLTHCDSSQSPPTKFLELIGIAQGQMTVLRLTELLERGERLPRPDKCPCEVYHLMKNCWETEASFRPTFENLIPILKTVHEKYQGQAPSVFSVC
T2 sequence (O60674 whole entry): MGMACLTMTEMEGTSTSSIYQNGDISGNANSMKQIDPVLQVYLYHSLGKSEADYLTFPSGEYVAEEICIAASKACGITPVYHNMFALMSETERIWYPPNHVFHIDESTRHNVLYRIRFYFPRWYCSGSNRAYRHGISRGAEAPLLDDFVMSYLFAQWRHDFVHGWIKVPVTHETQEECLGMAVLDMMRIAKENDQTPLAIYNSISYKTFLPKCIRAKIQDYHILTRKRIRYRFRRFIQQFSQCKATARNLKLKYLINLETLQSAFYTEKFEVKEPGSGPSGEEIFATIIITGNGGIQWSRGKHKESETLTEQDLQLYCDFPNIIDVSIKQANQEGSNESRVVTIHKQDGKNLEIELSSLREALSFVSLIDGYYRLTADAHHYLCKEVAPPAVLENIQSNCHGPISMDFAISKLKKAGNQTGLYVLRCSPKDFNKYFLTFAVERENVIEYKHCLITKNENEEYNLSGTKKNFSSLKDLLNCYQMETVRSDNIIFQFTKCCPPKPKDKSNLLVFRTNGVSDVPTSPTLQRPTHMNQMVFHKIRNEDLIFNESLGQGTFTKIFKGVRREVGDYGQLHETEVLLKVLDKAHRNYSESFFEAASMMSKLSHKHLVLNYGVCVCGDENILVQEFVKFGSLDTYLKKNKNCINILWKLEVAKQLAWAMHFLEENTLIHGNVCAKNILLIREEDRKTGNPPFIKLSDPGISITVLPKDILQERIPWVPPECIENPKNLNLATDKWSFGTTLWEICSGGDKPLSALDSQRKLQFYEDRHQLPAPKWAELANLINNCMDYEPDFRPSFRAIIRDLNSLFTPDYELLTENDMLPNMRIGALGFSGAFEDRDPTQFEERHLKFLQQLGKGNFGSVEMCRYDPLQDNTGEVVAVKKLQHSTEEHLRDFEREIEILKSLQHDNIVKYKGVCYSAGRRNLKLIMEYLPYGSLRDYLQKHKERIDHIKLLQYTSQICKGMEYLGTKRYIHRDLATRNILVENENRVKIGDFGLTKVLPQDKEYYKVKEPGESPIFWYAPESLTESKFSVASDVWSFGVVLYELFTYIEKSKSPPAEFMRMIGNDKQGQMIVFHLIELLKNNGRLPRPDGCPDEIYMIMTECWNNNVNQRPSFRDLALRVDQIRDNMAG

| SMILES | IC50 (TYK2; [1]) [nM] | IC50 (JAK2) [nM] | IC50 (TYK2; read-out: TYK2 IC50) [nM] |
| --- | --- | --- | --- |
| CC(C#N)NC(=O)Cn1cc(Nc2nccc(NCc3c(F)cc(F)cc3F)n2)cn1 (centres unmarked) [Example I-5, N-(1-cyanoethyl)-2-(4-((4-((2,4,6-trifluorobenzyl)amino)pyrimidin-2-yl)amino)-1H-pyrazol-1-yl)acetamide] | 10 to 100 | > 10000 | – |
| NS(=O)(=O)c1ccc(CNc2nc(Nc3cnn(CC(=O)NC4CC4)c3)ncc2Cl)cc1 [Example I-10] | 10 to 100 | > 10000 | – |
| NS(=O)(=O)c1ccc(CNc2nc(Nc3cnn(CC(=O)N4CCOCC4)c3)ncc2F)cc1 [Example I-11] | 10 to 100 | > 10000 | – |
| CNC(=O)Cn1cc(Nc2ncc(F)c(NCc3c(F)ccc(OC)c3F)n2)cn1 [Example I-12] | 10 to 100 | 1000 to 10000 | – |
| CN(C)C(=O)Cn1cc(Nc2ncc(Cl)c(NCc3c(F)cc(F)cc3F)n2)cn1 [Example I-16] | 10 to 100 | 1000 to 10000 | – |
| CN(C)C(=O)Cn1cc(Nc2ncc(F)c(NCc3c(F)cc(F)cc3F)n2)cn1 [Example I-18] | 10 to 100 | 1000 to 10000 | – |
| Cc1cnc(Nc2cnn(CC(=O)N3CCOCC3)c2)nc1NCc1c(F)cc(F)cc1F [Example I-21] | ≤ 10 | 1000 to 10000 | – |
| COc1ccc(F)c(CNc2nc(Nc3cnn(CC(=O)N4CCOCC4)c3)ncc2C)c1F [Example I-22] | ≤ 10 | 100 to 1000 | – |
| Cc1cnc(Nc2cnn(CC(=O)N3CCOCC3)c2)nc1NCc1cccc(OC(F)F)c1 [Example I-23] | ≤ 10 | 1000 to 10000 | – |
| COc1ccc(F)c(CNc2nc(Nc3cnn(CC(=O)N4CCOCC4)c3)ncc2F)c1F [Example I-24] | ≤ 10 | 1000 to 10000 | – |
| NS(=O)(=O)c1ccc(CNc2nc(Nc3cnn(CC(=O)N4CCCCC4)c3)ncc2F)cc1 [Example I-30] | 10 to 100 | > 10000 | – |
| Cc1cnc(Nc2cnn(CC(=O)NC(C)C)c2)nc1NCc1c(F)cc(F)cc1F [Example I-32] | ≤ 10 | 1000 to 10000 | – |
| Cc1cnc(Nc2cnn(CC(=O)N3CCOC(C)(C)C3)c2)nc1NCc1c(F)cc(F)cc1F [Example I-34] | ≤ 10 | 1000 to 10000 | – |
| Cc1cnc(Nc2cnn(CC(=O)N[C@H](C)CO)c2)nc1NCc1c(F)cc(F)cc1F [Example I-35] | ≤ 10 | 100 to 1000 | – |
| Cc1cnc(Nc2cnn(CC(=O)NC3CCOC3)c2)nc1NCc1c(F)cc(F)cc1F (centres unmarked) [Example I-37] | 10 to 100 | 100 to 1000 | – |
| CC1(C)CN(C(=O)Cn2cc(Nc3ncc(F)c(NCc4c(F)cc(F)cc4F)n3)cn2)CCO1 [Example I-39] | 10 to 100 | 1000 to 10000 | – |
| C[C@H](CO)NC(=O)Cn1cc(Nc2ncc(F)c(NCc3c(F)cc(F)cc3F)n2)cn1 [Example I-41] | 10 to 100 | 1000 to 10000 | – |
| C[C@@H](CO)NC(=O)Cn1cc(Nc2ncc(F)c(NCc3c(F)cc(F)cc3F)n2)cn1 [Example I-42] | ≤ 10 | 1000 to 10000 | – |

Second part, the compound after the results:

| IC50 (TYK2; [1]) [nM] | IC50 (JAK2) [nM] | IC50 (TYK2; read-out: TYK2 IC50) [nM] | SMILES |
| --- | --- | --- | --- |
| 10 to 100 | 1000 to 10000 | – | CC(C)NC(=O)Cn1cc(Nc2nccc(NCc3c(F)cc(C#N)cc3F)n2)cn1 [Example I-1, 2-(4-((4-((4-cyano-2,6-difluorobenzyl)amino)pyrimidin-2-yl)amino)-1H-pyrazol-1-yl)-N-isopropylacetamide] |
| 10 to 100 | 1000 to 10000 | < 100 | C[C@@H](CO)NC(=O)Cn1cc(Nc2nccc(NCc3c(Cl)cccc3Cl)n2)cn1 [Example I-3, (S)-2-(4-((4-((2,6-dichlorobenzyl)amino)pyrimidin-2-yl)amino)-1H-pyrazol-1-yl)-N-(1-hydroxypropan-2-yl)acetamide] |
| 10 to 100 | 1000 to 10000 | – | O=C(Cn1cc(Nc2ncc(F)c(NCc3c(F)cc(F)cc3F)n2)cn1)NC1CC1 [Example I-4, N-cyclopropyl-2-(4-((5-fluoro-4-((2,4,6-trifluorobenzyl)amino)pyrimidin-2-yl)amino)-1H-pyrazol-1-yl)acetamide] |
| 10 to 100 | 1000 to 10000 | – | CCNC(=O)Cn1cc(Nc2nccc(NCc3c(F)cc(F)cc3F)n2)cn1 [Example I-6, N-ethyl-2-(4-((4-((2,4,6-trifluorobenzyl)amino)pyrimidin-2-yl)amino)-1H-pyrazol-1-yl)acetamide] |
| 10 to 100 | 1000 to 10000 | – | Cc1cnc(Nc2cnn(CCO)c2)nc1NCc1ccc(S(N)(=O)=O)cc1 [Example I-8] |
| 10 to 100 | > 10000 | – | NS(=O)(=O)c1ccc(CNc2nc(Nc3cnn(CCO)c3)ncc2F)cc1 [Example I-9] |
| ≤ 10 | 1000 to 10000 | – | COc1ccc(F)c(CNc2nc(Nc3cnn(CC(=O)N(C)C)c3)ncc2F)c1F [Example I-13] |
| 10 to 100 | 1000 to 10000 | – | CN(C)C(=O)Cn1cc(Nc2ncc(F)c(NCc3cccc(OC(F)F)c3)n2)cn1 [Example I-14] |
| 10 to 100 | 100 to 1000 | – | OCCn1cc(Nc2ncc(Cl)c(NCc3c(F)cc(F)cc3F)n2)cn1 [Example I-15] |
| 10 to 100 | 1000 to 10000 | – | OCCn1cc(Nc2ncc(F)c(NCc3c(F)cc(F)cc3F)n2)cn1 [Example I-17] |
| 10 to 100 | 100 to 1000 | – | Cc1cnc(Nc2cnn(CC(=O)N(C)C)c2)nc1NCc1c(F)cc(F)cc1F [Example I-19] |
| ≤ 10 | 100 to 1000 | – | COc1ccc(F)c(CNc2nc(Nc3cnn(CC(=O)N(C)C)c3)ncc2C)c1F [Example I-20] |
| ≤ 10 | 1000 to 10000 | – | O=C(Cn1cc(Nc2ncc(F)c(NCc3c(F)cc(F)cc3F)n2)cn1)N1CCOCC1 [Example I-26] |
| 10 to 100 | 1000 to 10000 | – | O=C(Cn1cc(Nc2nccc(NCc3c(F)cc(F)cc3F)n2)cn1)N1CCOCC1 [Example I-27] |
| ≤ 10 | 1000 to 10000 | – | O=C(Cn1cc(Nc2nccc(NCc3c(F)cccc3F)n2)cn1)N1CCOCC1 [Example I-28] |
| ≤ 10 | 1000 to 10000 | – | COc1cc(F)c(CNc2nc(Nc3cnn(CC(=O)N4CCOCC4)c3)ncc2C)c(F)c1 [Example I-29] |
| 10 to 100 | 1000 to 10000 | – | NS(=O)(=O)c1cc(F)c(CNc2nc(Nc3cnn(CC(=O)N4CCCCC4)c3)ncc2F)c(F)c1 [Example I-31] |
| 10 to 100 | 1000 to 10000 | – | Cc1cnc(Nc2cnn(CC(=O)NC3CCC3)c2)nc1NCc1c(F)cc(F)cc1F [Example I-33] |
| ≤ 10 | 100 to 1000 | – | Cc1cnc(Nc2cnn(CC(=O)N[C@@H](C)CO)c2)nc1NCc1c(F)cc(F)cc1F [Example I-36] |
| ≤ 10 | 1000 to 10000 | < 100 | CC(C)NC(=O)Cn1cc(Nc2ncc(F)c(NCc3c(F)cc(F)cc3F)n2)cn1 [Example I-38] |
| 10 to 100 | 1000 to 10000 | – | C[C@@H]1COCCN1C(=O)Cn1cc(Nc2ncc(F)c(NCc3c(F)cc(F)cc3F)n2)cn1 [Example I-40] |
| 10 to 100 | 100 to 1000 | – | Cc1cnc(Nc2cnn(C)c2)nc1NCc1c(F)cc(S(N)(=O)=O)cc1F [Example I-43] |
| ≤ 10 | 1000 to 10000 | – | O=C(Cn1cc(Nc2ncc(F)c(NCc3cccc(OC(F)F)c3)n2)cn1)N1CCOCC1 [Example I-44] |
| 10 to 100 | > 10000 | – | CC(C)NC(=O)Cn1cc(Nc2ncc(F)c(NCc3cccc(OC(F)F)c3)n2)cn1 [Example I-45] |

Reference: patent publication US9296725B2, “Heterocyclyl pyrimidine analogues as TYK2 inhibitors” (Cellzome Limited, priority 2012, dated 2016)
